How the values were obtained:
ob/ob mice = test: ob/ob mice, hepatic gene expression by quantitative RT-PCR after 26 days of treatment; format: in vivo; conditions: 26 days daily gavage, Cpd 29 10 and 30 mg/kg/day, Fenofibrate 100 mg/kg/day, Rosiglitazone 10 mg/kg/day
Description: The compounds of the General Formula (I) were tested in a murine model of type II diabetes, the ob/ob mice. Mice were daily orally treated with the Compound 29 of WO 2004/005233 at two different doses (10 and 30 mg/kg/day) and with the prototypical PPARalpha- and PPARgamma-specific reference compounds (Fenofibrate at 100 mg/kg/day and Rosiglitazone at 10 mg/kg/day respectively). After 26 days of treatment, animals were sacrificed and plasma samples and livers were harvested. Hepatic expression of genes that are known to be implicated in the liver inflammation process was evaluated and plasmatic levels of ALAT were measured (Panels A-C). […]
Male ob/ob mice (8 weeks of age) were purchased from Charles River (L'Arbresle, France) and were kept on a 12-hour light/dark cycle at a constant temperature of 20±3° C. After a 1 week acclimation, mice were separated in groups of 8 animals selected such that the distribution of their body weight and their 6 hours fasting glycemia determined before the experiment were uniform. […]
Total RNA was isolated from frozen livers using the NucleoSpin® 96 RNA kit (Macherey Nagel), according to the manufacturer's instructions. […] Quantitative PCR was then carried out using the MyiQ Single-Color Real-Time PCR Detection System (Biorad). […]

hApoE2 KI mice = hApoE2 KI mice on Western diet, 12 weeks, hepatic gene expression by quantitative RT-PCR; format: in vivo; conditions: 12 weeks in Western diet, Cpd 29 0.3 mg/kg/day
Description: The compounds of the General Formula (I) were tested in vivo in a high fat diet mice model. Dyslipidemic “humanized” ApoE2 knock-in mice (hApoE2 KI) were fed a Western diet and treated during 12 weeks. The compounds of interest, including the Compound 29 of WO 2004/005233 at 0.3 mg/kg/day and the Fenofibrate at 100 mg/kg/day (used as a reference compound) were incorporated into the diet. At the end of the protocol, animals were sacrificed, livers were harvested and the hepatic expression of genes that are known to be implicated in the liver inflammation and the fibrosis processes were evaluated by quantitative RT-PCR (Panels A-D). Statistical analysis was performed as indicated for FIG. 1.
Female hApoE2 knock-in (KI) transgenic mice (Sullivan et al., 1998)(4 weeks of age). Mice were kept on a 12-hour light/dark cycle at a constant temperature of 20±3° C. After a 1 week acclimation, mice were separated in groups of 7-10 animals selected such as the distribution of their body weight and plasmatic lipid levels determined before the experiment were uniform. Animals were fed a Western diet (20% saturated fat and 0.2% cholesterol, Harlan Teklad TD88137) at weaning and during 12 weeks. Compounds of interest (Cpd 29 at 0.3 mg/kg/day and Fenofibrate at 100 mg/kg/day) were incorporated in the Western diet (SAFE, Augy, France) and administrated to mice during 12 weeks. Control animals received Western diet only. Animals had access to food and water ad libitum.
At the end of the studies, the animals were weighed and sacrificed under anesthesia. Blood was collected from the retro-orbital sinus; plasma was obtained by centrifugation (4 000 rpm, at 4° C. for 15 min) and subsequently frozen and stored at −20° C. Tissues and livers were isolated and snap-frozen in liquid nitrogen and stored at −80° C. for subsequent analysis (gene expression and biochemistry) or fixed in 4% paraformaldehyde for histology.
Total RNA was isolated from frozen livers using the NucleoSpin® 96 RNA kit (Macherey Nagel), according to the manufacturer's instructions. Reverse transcription was performed on 1 μg of total RNA by action of 1 μl of MMLV-RT enzyme (Invitrogen) during 1 hour at 37° C. in a total volume of 30 μl. […] Quantitative PCR was then carried out using the MyiQ Single-Color Real-Time PCR Detection System (Biorad). […]
The quantity of fluorescence emitted is directly proportional to the quantity of complementary DNA present at the start of the reaction and amplified during the PCR. The relative levels of expression were determined using the standard curve for each transcript. […] The induction factor, i.e. the ratio between the relative signal induced by the compound according to the invention and the average of the values relating to the control group, was then calculated for each sample. […]

**Q.** With “1-[4-methylthiophenyl]-3-[3,5-dimethyl-4-carboxydimethylmethyloxyphenyl]prop-2-en-1-one [Cpd 29]” as the substance, how does the “hepatic expression of TNFalpha” value (ob/ob mice; FIG. 2A) read?
**A.** Its value is “inhibited the expression of this cytokine in a dose-response manner”.

**Q.** What about the “hepatic expression level of TGFbeta” value (ob/ob mice; FIG. 2B) of the same substance?
**A.** Its value is “inhibited the expression of this growth factor in a dose-response manner”.

**Q.** And the “hepatic expression of Col1a1 (collagen genes)” value (hApoE2 KI mice; Fenofibrate 100 mg/kg/day, FIG. 3D)?
**A.** Its value is “statistically significant inhibition”.

**Q.** What about the “hepatic expression of TNFα” value (hApoE2 KI mice; FIG. 3A) of the same substance?
**A.** Its value is “inhibited”.

**Q.** And the “hepatic expression of CCL5” value (hApoE2 KI mice; FIG. 3B)?
**A.** The value was “inhibited”.

**Q.** And the “hepatic expression of TGFβ” value (hApoE2 KI mice; FIG. 3C)?
**A.** Its value is “inhibited”.

Source: patent US10722575B2, “Use of 1,3-diphenylprop-2-en-1-one derivatives for treating liver disorders” (GENFIT, priority 2009, dated 2020)
